What was measured:
YopH = YopH (Yersinia enterocolitica, UniProt P15273); experiment: biochemical
TbPTP1 = TbPTP1 (Trypanosoma brucei brucei, UniProt Q38AT7); experiment: PTP inhibition assay (pNPP); type: biochemical; conditions: pNPP at Km, pH 7.0, 25° C.; read-out: IC50 TbPTP1
TcPTP = molecular target: T1, TcPTP (Homo sapiens, UniProt P17706); experiment: PTP inhibition assay (pNPP); type: biochemical; conditions: pNPP at Km, pH 7.0, 25° C.; read-out: IC50 TcPTP
T1 sequence (P17706 1-415): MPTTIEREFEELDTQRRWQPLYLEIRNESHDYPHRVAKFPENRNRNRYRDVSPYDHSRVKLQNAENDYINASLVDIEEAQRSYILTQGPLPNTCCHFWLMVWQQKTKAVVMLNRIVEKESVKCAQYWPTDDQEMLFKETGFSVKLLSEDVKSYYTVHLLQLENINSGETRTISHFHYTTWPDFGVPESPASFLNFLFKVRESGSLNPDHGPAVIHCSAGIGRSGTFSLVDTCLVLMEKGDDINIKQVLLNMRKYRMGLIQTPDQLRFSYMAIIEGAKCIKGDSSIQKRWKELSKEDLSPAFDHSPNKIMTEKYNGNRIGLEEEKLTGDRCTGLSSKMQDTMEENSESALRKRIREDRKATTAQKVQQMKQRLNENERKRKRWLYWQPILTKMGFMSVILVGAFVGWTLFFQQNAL

PEST = molecular target: T2, PEST (Homo sapiens, UniProt Q05209); experiment: PTP inhibition assay (pNPP); type: biochemical; conditions: pNPP at Km, pH 7.0, 25° C.; read-out: IC50 PEST
T2 sequence (Q05209 1-780): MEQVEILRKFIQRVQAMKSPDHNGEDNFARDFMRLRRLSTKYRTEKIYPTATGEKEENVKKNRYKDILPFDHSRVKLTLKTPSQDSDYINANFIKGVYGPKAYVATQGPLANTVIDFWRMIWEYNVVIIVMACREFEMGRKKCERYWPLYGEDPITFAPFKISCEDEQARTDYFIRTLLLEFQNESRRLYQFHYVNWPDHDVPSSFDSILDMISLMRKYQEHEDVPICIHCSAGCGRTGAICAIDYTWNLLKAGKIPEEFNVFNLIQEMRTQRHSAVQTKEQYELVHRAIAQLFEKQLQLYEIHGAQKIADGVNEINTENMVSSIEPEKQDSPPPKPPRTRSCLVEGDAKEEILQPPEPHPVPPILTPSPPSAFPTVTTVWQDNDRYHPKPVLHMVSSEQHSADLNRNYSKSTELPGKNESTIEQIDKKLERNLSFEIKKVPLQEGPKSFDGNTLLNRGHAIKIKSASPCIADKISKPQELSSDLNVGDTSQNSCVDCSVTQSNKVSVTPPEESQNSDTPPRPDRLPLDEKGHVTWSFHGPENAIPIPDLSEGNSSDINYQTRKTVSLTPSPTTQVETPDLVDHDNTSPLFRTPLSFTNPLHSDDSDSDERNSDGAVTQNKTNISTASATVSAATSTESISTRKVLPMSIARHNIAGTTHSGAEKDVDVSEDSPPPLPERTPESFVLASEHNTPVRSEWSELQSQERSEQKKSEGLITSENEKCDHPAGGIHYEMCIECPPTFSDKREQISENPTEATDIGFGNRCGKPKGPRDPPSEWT

SHP1 = SHP1 (Homo sapiens, UniProt P29350); experiment: PTP inhibition assay (pNPP); type: biochemical; conditions: pNPP at Km, pH 7.0, 25° C.
SHP1, sequence (P29350 whole entry): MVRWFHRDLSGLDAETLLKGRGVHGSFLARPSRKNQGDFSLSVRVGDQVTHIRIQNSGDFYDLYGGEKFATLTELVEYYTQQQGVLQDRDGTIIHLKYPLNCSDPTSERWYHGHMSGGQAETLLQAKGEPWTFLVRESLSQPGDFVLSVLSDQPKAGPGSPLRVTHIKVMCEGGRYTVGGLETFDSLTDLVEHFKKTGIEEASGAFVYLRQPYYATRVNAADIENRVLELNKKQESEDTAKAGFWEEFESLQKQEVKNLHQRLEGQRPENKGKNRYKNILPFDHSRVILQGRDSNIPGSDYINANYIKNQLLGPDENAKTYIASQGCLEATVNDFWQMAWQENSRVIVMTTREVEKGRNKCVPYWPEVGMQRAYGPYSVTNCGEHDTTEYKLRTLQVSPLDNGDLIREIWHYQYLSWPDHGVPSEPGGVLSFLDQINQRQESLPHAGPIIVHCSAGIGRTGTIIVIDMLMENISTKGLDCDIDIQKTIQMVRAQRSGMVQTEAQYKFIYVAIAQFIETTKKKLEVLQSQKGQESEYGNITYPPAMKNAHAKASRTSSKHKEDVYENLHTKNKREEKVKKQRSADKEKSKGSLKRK

SHP2 = molecular target: T3, SHP2 (Homo sapiens, UniProt Q06124); experiment: SHP2 phosphatase inhibition assay (pNPP); type: biochemical; conditions: pNPP at Km, pH 7.0, 25° C.; read-out: IC50 SHP2
T3 sequence (Q06124 224-528): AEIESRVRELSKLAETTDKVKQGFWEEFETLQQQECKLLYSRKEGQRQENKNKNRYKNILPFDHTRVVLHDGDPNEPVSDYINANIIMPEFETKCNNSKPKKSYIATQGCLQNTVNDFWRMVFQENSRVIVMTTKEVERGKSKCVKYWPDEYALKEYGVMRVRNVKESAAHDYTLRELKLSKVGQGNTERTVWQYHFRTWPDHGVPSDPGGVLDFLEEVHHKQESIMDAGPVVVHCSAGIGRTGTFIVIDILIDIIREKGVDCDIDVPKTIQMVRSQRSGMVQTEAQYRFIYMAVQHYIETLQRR

PP5 = molecular target: T4, PP5 (Homo sapiens, UniProt P53041); experiment: Phosphatase inhibition assay (pNPP)
T4 sequence (P53041 1-499): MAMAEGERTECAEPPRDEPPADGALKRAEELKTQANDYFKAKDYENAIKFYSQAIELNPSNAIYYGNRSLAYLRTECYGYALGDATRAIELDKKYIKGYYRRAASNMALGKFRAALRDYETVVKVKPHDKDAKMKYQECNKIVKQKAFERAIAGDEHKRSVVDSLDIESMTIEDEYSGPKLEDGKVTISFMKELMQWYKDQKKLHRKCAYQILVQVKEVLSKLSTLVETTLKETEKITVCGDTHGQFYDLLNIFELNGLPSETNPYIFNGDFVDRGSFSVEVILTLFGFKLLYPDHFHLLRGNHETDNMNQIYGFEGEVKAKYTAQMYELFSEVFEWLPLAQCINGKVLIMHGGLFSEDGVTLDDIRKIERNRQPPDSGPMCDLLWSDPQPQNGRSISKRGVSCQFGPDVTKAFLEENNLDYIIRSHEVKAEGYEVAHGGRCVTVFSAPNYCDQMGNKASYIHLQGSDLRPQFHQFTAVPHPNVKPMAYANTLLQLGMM

Measured: IC50

TbPTP1, sequence (Q38AT7 entry or part of it): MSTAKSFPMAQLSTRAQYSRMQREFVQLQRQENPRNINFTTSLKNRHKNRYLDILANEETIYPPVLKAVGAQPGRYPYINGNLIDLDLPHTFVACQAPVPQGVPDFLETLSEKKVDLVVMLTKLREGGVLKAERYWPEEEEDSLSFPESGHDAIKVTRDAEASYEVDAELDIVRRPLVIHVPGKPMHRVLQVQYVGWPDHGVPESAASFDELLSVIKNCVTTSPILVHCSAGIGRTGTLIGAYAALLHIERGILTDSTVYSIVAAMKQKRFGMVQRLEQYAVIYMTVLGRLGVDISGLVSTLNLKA
YopH, sequence (P15273 whole entry, looked up): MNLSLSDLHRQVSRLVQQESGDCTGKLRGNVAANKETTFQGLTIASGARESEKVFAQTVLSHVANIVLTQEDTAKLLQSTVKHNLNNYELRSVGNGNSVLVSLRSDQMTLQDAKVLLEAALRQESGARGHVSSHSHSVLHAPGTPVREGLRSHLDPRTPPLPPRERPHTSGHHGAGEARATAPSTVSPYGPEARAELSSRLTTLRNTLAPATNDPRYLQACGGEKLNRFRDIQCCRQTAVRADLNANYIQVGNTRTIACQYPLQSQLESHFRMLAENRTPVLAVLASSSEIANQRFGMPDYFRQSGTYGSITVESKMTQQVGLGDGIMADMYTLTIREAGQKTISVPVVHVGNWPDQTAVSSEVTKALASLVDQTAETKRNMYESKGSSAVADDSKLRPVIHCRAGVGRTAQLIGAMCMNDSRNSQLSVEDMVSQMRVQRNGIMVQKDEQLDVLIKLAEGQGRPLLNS

O=C(CS(=O)(=O)O)Nc1nc2ccccc2s1 [Compound L335N15]
> 100 µM: YopH | TbPTP1 | TcPTP | PEST | SHP1 | SHP2 | PP5
